Laboratory results from PMC8909834, “An Orally Bioavailable and Highly Efficacious Inhibitor of CDK9/FLT3 for the Treatment of Acute Myeloid Leukemia” (Cancers, 2022).

Tests used:
[1] = Aqueous solubility by turbidimetric method; assay type: physicochemical; conditions: aqueous medium (not further specified), kinetic from dmso stock
MV4-11 tumors = experiment: In vivo target engagement (western blot of tumor lysates); parameters: species or system mice; conditions: 75 and 125 mg/kg orally for 5 days, 4 h post final dose
Experimental: Western blotting. Western blotting was performed as described previously. Briefly, cells were lysed after incubation with different concentrations of compounds or control (0.1% DMSO) at the indicated times, samples were denatured at 95 °C for 5 min, and proteins having different molecular weights within each sample were separated by electrophoresis (Bio-Rad, Hercules, CA, USA) on polyacrylamide gels (4–20%, Bio-Rad). Resolved proteins were electrophoretically transferred onto a PVDF membrane and blocked by incubating with 10% w/v non-fat powdered milk dissolved in 1 × Tris-buffered saline-tween 20 (TBST) for 1 h at room temperature prior to incubating overnight with primary antibodies at 4 °C with slight shaking. Chemiluminescence was detected with a ChemiDoc^TM gel imaging system after the membranes have been exposed to ECL substrates (GE Healthcare, PA, USA), and the Image Lab software (Bio-Rad) was used for image capture. […] Bands were quantified using ImageJ software (US National Institutes of Health, Bethesda, MD, USA). […]

[2] = Dissociation constant by PH metric assay; assay type: physicochemical
WNK2 = target: T1, WNK2 (Homo sapiens, UniProt Q9Y3S1); experiment: Kinase Hotspot radiolabel assay; assay type: biochemical; conditions: read-out: % Residual Activity
T1 construct: purchased Reaction Biology Corporation (Kinase HotSpot)
T1 sequence (Q9Y3S1 whole entry): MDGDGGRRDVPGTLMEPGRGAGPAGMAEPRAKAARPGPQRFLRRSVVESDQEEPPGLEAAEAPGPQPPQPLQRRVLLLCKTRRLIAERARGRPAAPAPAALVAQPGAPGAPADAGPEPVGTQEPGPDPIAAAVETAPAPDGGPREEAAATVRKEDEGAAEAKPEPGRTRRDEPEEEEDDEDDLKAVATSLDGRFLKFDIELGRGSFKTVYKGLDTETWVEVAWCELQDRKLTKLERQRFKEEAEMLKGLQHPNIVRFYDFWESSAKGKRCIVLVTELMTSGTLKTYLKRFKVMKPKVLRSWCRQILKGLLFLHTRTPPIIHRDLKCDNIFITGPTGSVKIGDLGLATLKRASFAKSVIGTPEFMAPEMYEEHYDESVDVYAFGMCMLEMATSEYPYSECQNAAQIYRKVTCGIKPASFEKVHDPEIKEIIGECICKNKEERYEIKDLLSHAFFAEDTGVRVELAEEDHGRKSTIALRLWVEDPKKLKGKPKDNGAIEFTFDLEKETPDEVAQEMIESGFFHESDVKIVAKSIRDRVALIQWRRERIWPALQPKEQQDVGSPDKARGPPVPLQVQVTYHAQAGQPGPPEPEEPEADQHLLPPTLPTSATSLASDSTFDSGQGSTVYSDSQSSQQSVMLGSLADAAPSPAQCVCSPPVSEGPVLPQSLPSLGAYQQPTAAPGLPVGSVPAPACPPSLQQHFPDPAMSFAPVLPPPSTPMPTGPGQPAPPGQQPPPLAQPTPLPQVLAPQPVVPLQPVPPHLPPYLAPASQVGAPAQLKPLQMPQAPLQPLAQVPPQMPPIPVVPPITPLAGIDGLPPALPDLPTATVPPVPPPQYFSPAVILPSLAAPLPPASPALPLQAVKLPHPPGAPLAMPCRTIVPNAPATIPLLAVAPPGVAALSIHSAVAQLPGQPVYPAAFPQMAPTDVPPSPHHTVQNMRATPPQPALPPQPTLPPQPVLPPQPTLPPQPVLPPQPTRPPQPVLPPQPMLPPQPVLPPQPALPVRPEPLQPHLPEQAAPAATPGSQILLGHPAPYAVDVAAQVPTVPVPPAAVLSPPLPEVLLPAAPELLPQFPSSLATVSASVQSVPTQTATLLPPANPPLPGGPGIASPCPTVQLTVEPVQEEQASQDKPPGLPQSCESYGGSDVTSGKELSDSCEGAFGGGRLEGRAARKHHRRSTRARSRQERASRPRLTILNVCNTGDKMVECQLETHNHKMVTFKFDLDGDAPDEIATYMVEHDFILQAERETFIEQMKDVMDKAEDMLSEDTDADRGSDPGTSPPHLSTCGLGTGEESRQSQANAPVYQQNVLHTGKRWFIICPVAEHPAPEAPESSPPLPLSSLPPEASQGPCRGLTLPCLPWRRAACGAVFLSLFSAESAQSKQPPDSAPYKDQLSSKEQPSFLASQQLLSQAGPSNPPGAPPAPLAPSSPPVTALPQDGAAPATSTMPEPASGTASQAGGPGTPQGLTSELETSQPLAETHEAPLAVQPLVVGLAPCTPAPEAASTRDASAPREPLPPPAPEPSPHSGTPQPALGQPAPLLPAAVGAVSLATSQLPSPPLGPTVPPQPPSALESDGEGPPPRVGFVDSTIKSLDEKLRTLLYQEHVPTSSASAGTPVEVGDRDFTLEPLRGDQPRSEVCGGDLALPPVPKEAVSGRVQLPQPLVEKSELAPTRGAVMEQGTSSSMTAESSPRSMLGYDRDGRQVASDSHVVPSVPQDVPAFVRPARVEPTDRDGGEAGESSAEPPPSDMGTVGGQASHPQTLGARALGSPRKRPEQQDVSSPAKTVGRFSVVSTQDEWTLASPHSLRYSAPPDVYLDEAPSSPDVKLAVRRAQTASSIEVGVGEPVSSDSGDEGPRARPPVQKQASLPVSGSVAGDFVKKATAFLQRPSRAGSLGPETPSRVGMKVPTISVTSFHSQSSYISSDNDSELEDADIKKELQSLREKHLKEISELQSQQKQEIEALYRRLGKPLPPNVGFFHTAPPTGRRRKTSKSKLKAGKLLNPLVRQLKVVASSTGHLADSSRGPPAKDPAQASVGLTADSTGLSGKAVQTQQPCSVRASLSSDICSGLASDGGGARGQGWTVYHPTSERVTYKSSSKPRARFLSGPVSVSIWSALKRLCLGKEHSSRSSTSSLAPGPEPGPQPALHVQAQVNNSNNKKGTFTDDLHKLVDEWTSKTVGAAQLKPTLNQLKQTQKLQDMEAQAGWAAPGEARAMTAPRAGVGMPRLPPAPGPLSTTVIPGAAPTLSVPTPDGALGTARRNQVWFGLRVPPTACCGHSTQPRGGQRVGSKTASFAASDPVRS
Procedure, shortened: (§1)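 Profiled at 1 µM compound within a 369-kinase panel using a radiolabel Hotspot format. Ki values were then determined for kinases showing greater than 90% inhibition.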

EPHA5 = target: T2, EPHA5 (Homo sapiens, UniProt P54756); experiment: Kinase Hotspot radiolabel assay; assay type: biochemical; conditions: read-out: % Residual Activity
T2 construct: purchased Reaction Biology Corporation (Kinase HotSpot)
Procedure, shortened: as §1

TESK1 = target: T3, TESK1 (Homo sapiens, UniProt Q15569); experiment: Kinase Hotspot radiolabel assay; assay type: biochemical; conditions: read-out: % Residual Activity
T3 construct: purchased Reaction Biology Corporation (Kinase HotSpot)
T3 sequence (Q15569 whole entry): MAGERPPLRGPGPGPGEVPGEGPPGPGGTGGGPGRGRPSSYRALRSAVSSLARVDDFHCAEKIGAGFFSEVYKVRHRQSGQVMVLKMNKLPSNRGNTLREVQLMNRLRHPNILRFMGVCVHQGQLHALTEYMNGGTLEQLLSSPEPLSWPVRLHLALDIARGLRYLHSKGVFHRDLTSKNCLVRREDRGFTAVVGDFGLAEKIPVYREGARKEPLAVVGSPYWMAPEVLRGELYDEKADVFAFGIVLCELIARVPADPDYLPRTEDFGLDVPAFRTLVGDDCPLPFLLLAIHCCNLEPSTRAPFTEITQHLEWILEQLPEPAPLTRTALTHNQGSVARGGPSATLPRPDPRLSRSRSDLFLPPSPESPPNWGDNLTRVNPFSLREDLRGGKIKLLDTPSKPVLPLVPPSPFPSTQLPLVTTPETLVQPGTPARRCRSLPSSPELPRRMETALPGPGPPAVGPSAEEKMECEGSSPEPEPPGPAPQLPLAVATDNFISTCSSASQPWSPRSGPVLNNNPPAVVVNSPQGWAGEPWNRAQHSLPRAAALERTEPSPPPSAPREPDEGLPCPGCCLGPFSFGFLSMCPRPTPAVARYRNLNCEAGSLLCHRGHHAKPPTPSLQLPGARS
Procedure, shortened: as §1

TBK1 = target: T4, TBK1 (Homo sapiens, UniProt Q9UHD2); experiment: Kinase Hotspot radiolabel assay; assay type: biochemical; conditions: read-out: % Residual Activity
T4 construct: purchased Reaction Biology Corporation (Kinase HotSpot)
T4 sequence (Q9UHD2 whole entry): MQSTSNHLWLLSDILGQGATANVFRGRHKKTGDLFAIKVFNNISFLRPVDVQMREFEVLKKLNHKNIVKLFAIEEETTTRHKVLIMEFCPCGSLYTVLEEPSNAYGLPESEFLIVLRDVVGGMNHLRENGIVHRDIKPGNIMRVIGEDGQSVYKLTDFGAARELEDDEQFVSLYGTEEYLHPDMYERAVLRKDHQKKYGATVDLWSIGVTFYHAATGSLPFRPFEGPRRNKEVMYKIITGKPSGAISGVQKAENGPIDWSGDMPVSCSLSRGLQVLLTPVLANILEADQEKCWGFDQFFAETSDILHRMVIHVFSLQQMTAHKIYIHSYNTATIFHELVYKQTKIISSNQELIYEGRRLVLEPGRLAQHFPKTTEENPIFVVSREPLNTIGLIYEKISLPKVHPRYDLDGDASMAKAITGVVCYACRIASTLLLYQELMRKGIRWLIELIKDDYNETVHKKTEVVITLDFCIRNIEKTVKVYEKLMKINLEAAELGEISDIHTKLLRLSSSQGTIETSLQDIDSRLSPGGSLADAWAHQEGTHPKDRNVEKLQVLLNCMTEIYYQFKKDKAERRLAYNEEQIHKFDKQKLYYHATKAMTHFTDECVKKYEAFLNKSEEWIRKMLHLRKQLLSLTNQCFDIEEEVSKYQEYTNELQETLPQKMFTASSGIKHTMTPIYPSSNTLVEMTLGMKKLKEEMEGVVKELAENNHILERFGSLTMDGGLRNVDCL
Procedure, shortened: as §1

PKCtheta = target: T5, PKCtheta (Homo sapiens, UniProt Q04759); experiment: Kinase Hotspot radiolabel assay; assay type: biochemical; conditions: read-out: % Residual Activity
T5 construct: purchased Reaction Biology Corporation (Kinase HotSpot)
T5 sequence (Q04759 whole entry): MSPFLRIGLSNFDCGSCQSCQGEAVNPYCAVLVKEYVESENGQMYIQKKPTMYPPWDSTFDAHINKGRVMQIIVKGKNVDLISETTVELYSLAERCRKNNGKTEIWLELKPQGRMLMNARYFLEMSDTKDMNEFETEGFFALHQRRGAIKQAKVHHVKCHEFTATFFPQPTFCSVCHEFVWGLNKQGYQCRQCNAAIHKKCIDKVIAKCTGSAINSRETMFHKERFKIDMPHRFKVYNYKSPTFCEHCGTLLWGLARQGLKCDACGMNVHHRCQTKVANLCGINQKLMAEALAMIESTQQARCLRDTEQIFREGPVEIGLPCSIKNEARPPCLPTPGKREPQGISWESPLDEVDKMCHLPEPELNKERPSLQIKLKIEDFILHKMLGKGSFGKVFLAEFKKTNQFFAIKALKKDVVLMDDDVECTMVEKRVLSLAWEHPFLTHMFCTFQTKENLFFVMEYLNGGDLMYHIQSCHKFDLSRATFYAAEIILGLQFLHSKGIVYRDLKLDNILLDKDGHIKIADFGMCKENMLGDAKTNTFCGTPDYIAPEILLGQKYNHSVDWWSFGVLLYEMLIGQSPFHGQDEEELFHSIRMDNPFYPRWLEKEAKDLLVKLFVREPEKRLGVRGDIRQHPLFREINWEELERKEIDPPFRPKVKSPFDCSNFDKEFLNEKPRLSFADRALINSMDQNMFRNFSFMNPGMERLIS
Procedure, shortened: as §1

CDK3/cyclin E = target: T6, CDK3/cyclin E (Homo sapiens, UniProt Q00526); experiment: Kinase Hotspot radiolabel assay; assay type: biochemical; conditions: read-out: % Residual Activity
T6 construct: purchased Reaction Biology Corporation (Kinase HotSpot)
Procedure, shortened: as §1

TAK1 = target: T7, TAK1 (Homo sapiens, UniProt O43318); experiment: Kinase Hotspot radiolabel assay; assay type: biochemical; conditions: read-out: % Residual Activity
T7 construct: purchased Reaction Biology Corporation (Kinase HotSpot)
T7 sequence (O43318 1-303 limits assumed): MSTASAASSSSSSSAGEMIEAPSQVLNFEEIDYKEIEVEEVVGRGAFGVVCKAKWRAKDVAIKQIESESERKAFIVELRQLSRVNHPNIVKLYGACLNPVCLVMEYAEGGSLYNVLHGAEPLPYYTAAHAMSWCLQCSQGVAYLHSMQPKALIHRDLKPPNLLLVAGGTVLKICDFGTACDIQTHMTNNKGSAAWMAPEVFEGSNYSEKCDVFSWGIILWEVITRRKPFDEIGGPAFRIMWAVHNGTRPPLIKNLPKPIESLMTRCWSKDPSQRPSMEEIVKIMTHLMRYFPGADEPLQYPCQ
Procedure, shortened: as §1

With `Cc1cnc(N[C@H]2CC[C@H](N)CC2)nc1-c1cnc2ccc(-c3ccccc3)cn12` [CDDD11-8] the solubility [1] was greater than 100 µM, the “level of MCL1 in tumors” value (MV4-11 tumors) was “greatly reduced” and the “phosphorylation of FLT3 at Tyr591 and STAT5 at Tyr 694 in tumors” value (MV4-11 tumors) was “reduced”. The “phosphorylation of RNAPII at Ser2 and Ser5 in tumors” value (MV4-11 tumors) was “potently inhibited”, the pKa ([2]; first of three values) was 2.75 and the pKa ([2]; second of three values) was 4.95. For the same molecule, the pKa ([2]; third of three values) was 9.89, the remaining activity at 1 µM (WNK2) was 94.5% and the remaining activity at 1 µM (EPHA5) was 83.8%. The remaining activity at 1 µM (TESK1) was 113%, the remaining activity at 1 µM (TBK1) was 94.6% and the remaining activity at 1 µM (PKCtheta) was 46.2%. For the same molecule, the remaining activity at 1 µM (CDK3/cyclin E) was 77.9% and the remaining activity at 1 µM (TAK1) was 77.8%.
